Data from ChEMBL document CHEMBL1909046, “DrugMatrix in vitro pharmacology data”.

Key:
[1] = molecular target: Insulin receptor (Rattus norvegicus, UniProt P15127); assay type: cell membranes, Wistar, Liver, Membrane
[2] = molecular target: Glycine receptor (Rattus norvegicus, UniProt P22771+P24524+P07727+P20781); assay type: cell membranes, Wistar, Spinal cord, Membrane
[3] = molecular target: Prostaglandin G/H synthase 1 (Homo sapiens, UniProt P23219); experiment: biochemical; assay type: tissue-based, Platelet; settings: platelet;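 note: inhibition of COX-1 enzyme activity, with arachidonic acid supplied as substrate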
[4] = molecular target: Receptor tyrosine-protein kinase erbB-2 (Homo sapiens, UniProt P04626); experiment: biochemical; assay type: cell-based, Insect cells; settings: insect cells;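 note: inhibition of HER2 kinase enzyme activity, measured with Poly(Glu:Tyr) as the phosphorylation substrate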
[5] = molecular target: T1, Cytochrome P450 2A6 (Homo sapiens, UniProt P11509); settings: bti-tn-5b1-4
T1 sequence (P11509 whole entry): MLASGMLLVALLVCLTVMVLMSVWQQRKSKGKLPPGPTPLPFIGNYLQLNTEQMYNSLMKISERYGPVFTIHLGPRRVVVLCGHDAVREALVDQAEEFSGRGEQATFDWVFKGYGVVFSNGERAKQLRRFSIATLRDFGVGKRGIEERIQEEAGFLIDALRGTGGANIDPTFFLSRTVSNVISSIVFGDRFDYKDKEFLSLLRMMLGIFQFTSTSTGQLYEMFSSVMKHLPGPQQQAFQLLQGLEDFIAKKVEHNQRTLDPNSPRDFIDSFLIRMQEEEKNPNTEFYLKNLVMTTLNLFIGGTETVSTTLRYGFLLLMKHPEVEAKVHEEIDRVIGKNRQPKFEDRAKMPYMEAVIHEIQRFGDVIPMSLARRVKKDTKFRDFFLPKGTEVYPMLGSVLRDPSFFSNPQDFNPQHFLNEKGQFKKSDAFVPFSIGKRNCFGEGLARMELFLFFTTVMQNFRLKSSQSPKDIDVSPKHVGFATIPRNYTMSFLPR

[6] = molecular target: T2, Polyunsaturated fatty acid lipoxygenase ALOX15 (Oryctolagus cuniculus, UniProt P12530); experiment: biochemical; assay type: tissue-based, Reticulocytes; settings: reticulocytes;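 note: inhibition of 15-lipoxygenase enzyme activity measured with linoleic acid as the substrate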
T2 sequence (P12530 whole entry): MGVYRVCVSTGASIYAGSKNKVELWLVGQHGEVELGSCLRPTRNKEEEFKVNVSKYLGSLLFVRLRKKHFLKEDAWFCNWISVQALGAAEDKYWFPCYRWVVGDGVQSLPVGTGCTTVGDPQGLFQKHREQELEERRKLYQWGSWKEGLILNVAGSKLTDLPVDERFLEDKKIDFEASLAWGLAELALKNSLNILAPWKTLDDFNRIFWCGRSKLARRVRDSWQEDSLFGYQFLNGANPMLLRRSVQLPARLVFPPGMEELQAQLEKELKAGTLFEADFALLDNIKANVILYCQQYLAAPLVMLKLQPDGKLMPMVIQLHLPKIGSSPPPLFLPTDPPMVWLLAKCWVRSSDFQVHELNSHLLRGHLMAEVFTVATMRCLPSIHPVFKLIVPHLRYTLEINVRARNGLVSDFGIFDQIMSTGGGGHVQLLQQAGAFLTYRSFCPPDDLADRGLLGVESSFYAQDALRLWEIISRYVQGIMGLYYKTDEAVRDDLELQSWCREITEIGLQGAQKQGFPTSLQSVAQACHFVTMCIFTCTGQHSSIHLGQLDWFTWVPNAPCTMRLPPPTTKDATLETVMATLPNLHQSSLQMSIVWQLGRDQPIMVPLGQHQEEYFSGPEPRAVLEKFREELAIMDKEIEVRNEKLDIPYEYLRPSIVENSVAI

[7] = molecular target: T3, Calcitonin receptor (Homo sapiens, UniProt P30988); assay type: cell membranes, Membrane; settings: t47d
T3 sequence (P30988 whole entry): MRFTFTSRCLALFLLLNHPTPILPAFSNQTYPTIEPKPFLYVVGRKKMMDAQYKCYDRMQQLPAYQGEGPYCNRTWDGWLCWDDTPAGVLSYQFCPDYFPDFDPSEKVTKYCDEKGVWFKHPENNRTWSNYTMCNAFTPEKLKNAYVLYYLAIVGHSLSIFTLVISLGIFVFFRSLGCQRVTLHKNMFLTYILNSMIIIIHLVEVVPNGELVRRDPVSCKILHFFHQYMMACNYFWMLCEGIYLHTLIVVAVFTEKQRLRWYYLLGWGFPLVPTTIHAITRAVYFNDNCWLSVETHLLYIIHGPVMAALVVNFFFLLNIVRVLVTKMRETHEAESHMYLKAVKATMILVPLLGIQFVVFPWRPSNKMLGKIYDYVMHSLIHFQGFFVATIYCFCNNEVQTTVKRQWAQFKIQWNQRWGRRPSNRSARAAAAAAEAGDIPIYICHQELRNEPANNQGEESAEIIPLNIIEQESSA

[8] = molecular target: T4, Type-2 angiotensin II receptor (Homo sapiens, UniProt P50052); experiment: biochemical; assay type: cell-based, CHO-K1; settings: cho-k1
T4 sequence (P50052 whole entry): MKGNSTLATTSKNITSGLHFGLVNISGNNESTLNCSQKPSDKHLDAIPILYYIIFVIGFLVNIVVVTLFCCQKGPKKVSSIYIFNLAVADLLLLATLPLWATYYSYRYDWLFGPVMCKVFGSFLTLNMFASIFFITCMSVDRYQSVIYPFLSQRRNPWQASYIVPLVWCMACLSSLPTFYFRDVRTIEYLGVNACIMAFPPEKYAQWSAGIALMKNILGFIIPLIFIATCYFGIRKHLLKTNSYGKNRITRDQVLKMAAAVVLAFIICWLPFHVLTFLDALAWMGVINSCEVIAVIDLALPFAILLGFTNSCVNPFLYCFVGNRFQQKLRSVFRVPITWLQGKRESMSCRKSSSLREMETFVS
Note: in other assays of this panel Not Active means under 50% inhibition at 10 µM.

Sequence of Prostaglandin G/H synthase 1 (P23219 whole entry): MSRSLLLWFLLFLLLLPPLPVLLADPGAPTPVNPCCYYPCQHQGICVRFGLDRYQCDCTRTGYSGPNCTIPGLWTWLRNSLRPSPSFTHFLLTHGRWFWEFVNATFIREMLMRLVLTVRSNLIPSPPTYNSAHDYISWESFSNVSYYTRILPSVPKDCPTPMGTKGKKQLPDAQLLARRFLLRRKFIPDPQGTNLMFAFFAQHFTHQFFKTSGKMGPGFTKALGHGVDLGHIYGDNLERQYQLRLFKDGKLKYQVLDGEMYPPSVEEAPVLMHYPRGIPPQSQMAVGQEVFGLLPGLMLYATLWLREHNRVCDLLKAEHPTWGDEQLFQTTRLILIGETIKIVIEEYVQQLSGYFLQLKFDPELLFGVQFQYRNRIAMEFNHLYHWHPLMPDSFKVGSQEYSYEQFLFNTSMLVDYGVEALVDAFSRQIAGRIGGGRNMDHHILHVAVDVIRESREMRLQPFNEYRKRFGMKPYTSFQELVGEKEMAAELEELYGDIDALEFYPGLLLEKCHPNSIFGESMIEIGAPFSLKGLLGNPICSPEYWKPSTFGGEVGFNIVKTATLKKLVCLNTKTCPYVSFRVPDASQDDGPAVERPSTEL
Sequence of Insulin receptor (P15127 27-759 limits assumed): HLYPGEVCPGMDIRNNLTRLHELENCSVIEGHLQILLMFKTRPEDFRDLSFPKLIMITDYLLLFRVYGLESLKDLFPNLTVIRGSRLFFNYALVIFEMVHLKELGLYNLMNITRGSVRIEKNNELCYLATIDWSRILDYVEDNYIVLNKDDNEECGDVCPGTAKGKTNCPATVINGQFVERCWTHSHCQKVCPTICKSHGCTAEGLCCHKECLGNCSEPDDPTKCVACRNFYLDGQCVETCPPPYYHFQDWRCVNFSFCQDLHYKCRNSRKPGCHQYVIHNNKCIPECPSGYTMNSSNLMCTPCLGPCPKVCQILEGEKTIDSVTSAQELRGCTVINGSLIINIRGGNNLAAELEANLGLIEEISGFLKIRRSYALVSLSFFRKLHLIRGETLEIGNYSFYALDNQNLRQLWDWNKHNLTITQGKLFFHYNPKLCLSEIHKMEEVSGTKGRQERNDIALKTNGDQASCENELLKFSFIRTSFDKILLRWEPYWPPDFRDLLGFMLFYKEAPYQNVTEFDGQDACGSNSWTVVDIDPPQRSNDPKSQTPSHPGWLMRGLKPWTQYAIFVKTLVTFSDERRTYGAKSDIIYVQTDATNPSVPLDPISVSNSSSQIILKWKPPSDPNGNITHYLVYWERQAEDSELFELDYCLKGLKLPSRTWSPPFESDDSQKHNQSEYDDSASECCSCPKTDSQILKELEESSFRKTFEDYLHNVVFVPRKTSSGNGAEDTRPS
Sequence of Insulin receptor (P15127 764-1383 limits assumed): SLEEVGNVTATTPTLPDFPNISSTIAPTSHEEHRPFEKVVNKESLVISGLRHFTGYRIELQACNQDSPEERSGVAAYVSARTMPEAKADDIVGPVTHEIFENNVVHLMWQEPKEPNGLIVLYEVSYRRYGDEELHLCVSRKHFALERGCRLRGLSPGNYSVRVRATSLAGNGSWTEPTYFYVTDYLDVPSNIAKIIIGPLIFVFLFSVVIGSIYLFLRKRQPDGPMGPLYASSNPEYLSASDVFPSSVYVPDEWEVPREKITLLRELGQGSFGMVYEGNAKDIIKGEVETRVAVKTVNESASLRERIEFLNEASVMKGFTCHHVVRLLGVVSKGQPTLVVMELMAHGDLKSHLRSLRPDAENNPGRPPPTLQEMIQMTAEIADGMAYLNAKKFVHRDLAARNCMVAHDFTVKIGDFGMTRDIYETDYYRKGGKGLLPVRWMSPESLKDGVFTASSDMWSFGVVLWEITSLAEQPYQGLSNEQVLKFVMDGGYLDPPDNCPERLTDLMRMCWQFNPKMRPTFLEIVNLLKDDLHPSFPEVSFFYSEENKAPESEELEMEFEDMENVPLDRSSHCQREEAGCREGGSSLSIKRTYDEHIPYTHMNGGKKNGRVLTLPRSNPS

O=C(O)COc1ccc(C(=O)c2cccs2)c(Cl)c1Cl
Not Active: IC50 [1] | IC50 [2] | IC50 [3] | IC50 [4] | IC50 [5] | Ki [5] | IC50 [6] | IC50 [7] | IC50 [8]

C[N+](C)(C)CCOC(=O)CCC(=O)OCC[N+](C)(C)C.[Cl-].[Cl-] [SUCCINYLCHOLINE CHLORIDE]
Not Active: IC50 [1] | IC50 [2] | IC50 [3] | IC50 [4] | IC50 [5] | Ki [5] | IC50 [6] | IC50 [7] | IC50 [8]

TRANSPLATIN
Not Active: IC50 [1] | Ki [1] | IC50 [2] | Ki [2] | IC50 [3] | Ki [3] | IC50 [4] | Ki [4] | IC50 [5] | Ki [5] | IC50 [6] | Ki [6] | IC50 [7] | Ki [7] | IC50 [8] | Ki [8]

C[C@@](Cc1ccc(O)c(O)c1)(NN)C(=O)O.O [CARBIDOPA]
Not Active: IC50 [1] | IC50 [2] | IC50 [3] | IC50 [4] | IC50 [5] | Ki [5] | IC50 [6] | IC50 [7] | IC50 [8]

ZIRCONIUM(IV) CHLORIDE
Not Active: IC50 [1] | Ki [1] | IC50 [2] | Ki [2] | IC50 [3] | Ki [3] | IC50 [4] | Ki [4] | IC50 [5] | Ki [5] | IC50 [6] | Ki [6] | IC50 [7] | Ki [7] | IC50 [8] | Ki [8]

CN(C)C(=O)C(CCN1CCC(O)(c2ccc(Cl)cc2)CC1)(c1ccccc1)c1ccccc1 [LOPERAMIDE]
Not Active: IC50 [1] | IC50 [2] | IC50 [3] | IC50 [4] | IC50 [5] | Ki [5] | IC50 [6] | IC50 [7] | IC50 [8]

O=C(O)c1ccccc1O [SALICYLIC ACID]
Not Active: IC50 [1] | IC50 [2] | IC50 [3] | IC50 [4] | IC50 [5] | Ki [5] | IC50 [6] | IC50 [7] | IC50 [8]
